Results: PMC8632988, “Inhibition of SYK and cSrc kinases can protect bone and cartilage in preclinical models of osteoarthritis and rheumatoid arthritis” (Scientific Reports, 2021)
“And” between values parts separate entries of the source, which are not always exact repeats. Identical values can stand only once. Like-named read-outs stand apart in the source and are kept apart here.

Legend:
[1] = test system: human osteoclasts; test: Osteoclast-mediated resorption of the mineralized matrix; assay type: cell-based; parameters: Ratio %: unit not given here; settings: for Ratio %: vehicle average = 1.000
Protocol: The experiment was performed at Atlantic Bone Screen (France) and approved by Atlantic Bone Screen ethics committee. Human CD14 + monocytes were isolated from peripheral blood of healthy volunteers (informed consent was obtained from all subjects) using density gradient centrifugation (Ficoll-Hypaque) and magnetic cell sorting (MACS, MiltenyiBiotec). CD14 + monocytes (1.5 × 10^6 cells/well) were cultured for three days in proliferation medium (αMEM/FCS-10% supplemented with 25 ng/mL M-CSF), inducing proliferation and expression of RANK. Secondly, the cells were differentiated into osteoclasts in differentiation medium supplemented with 100 ng/mL RANKL for 4 days. Osteoclasts were detached from the wells using accutase, the cell suspension was homogenized and cells (75 μL/well) were reseeded into: (a) a 96-well plate coated with a synthetic mineralized matrix for an evaluation of osteoclast resorption, or (b) a classic 96-well plastic culture plate, for an assessment of osteoclast number. 75 μL of differentiation medium containing M-CSF and RANKL (at a 2 × concentration) was added to each well. The cells were incubated for an hour and were cultured for 48 h in the fresh differentiation medium supplemented with MT-SYK-03 or vehicle (DMSO, 0.3%). All treatments were carried out in quadruple. Then the cell medium was removed, cells were lysed and the surface of the resorbed areas of the mineralized matrix was quantified in each well. TRAP staining was performed for cells in a classic plastic plate and the number of mature osteoclasts (TRAP-positive cells with three or more nuclei) was determined in each well. Reconstruction of images and osteoclast count was performed using Nikon NIS-D software.

[2] = target: T1, JNK2 (Homo sapiens, UniProt P45984); test: Kinase selectivity profile assay; assay type: biochemical; settings: 500 nM; relative to DMSO; read-out: Residual enzymatic activity
T1 construct: purchased Reaction Biology Corporation
Description: (§1) Kinase activity data was expressed as the percent remaining kinase activity in test samples compared to vehicle (dimethyl sulfoxide) reactions based on the radioactivity of reaction products (see Table S2). Experiment was replicated twice.

[3] = target: T2, LCK (Homo sapiens, UniProt P06239); test: Kinase selectivity profile assay; assay type: biochemical
T2 construct: purchased Reaction Biology Corporation (assay service)
Description: as §1

[4] = target: T3, MARK1 (Homo sapiens, UniProt Q9P0L2); test: Kinase selectivity profile assay; assay type: biochemical; settings: 500 nM; relative to DMSO; read-out: Residual enzymatic activity
T3 construct: purchased Reaction Biology Corporation
Description: as §1

[5] = target: T4, MARK2/PAR-1Ba (Homo sapiens, UniProt Q7KZI7); test: Kinase selectivity profile assay; assay type: biochemical; settings: 500 nM; relative to DMSO; read-out: Residual enzymatic activity
T4 construct: purchased Reaction Biology Corporation
Description: as §1

[6] = target: T5, PAK1 (Homo sapiens, UniProt Q13153); test: Kinase selectivity profile assay; assay type: biochemical; settings: 500 nM; relative to DMSO; read-out: Residual enzymatic activity
T5 construct: purchased Reaction Biology Corporation
Description: as §1

[7] = target: T6, RET (Homo sapiens, UniProt P07949); test: Kinase selectivity profile assay; assay type: biochemical
T6 construct: purchased Reaction Biology Corporation (Malvern, PA, USA)
Description: as §1

[8] = Pharmacokinetics after single oral administration to rabbits; assay type: in vivo, rabbit; settings: single oral 50 mg/kg
Protocol: Experiments were performed at ChemPartner, Shanghai, China and approved by Institutional Ethics Committee (IEC) of ChemPartner. Male Wistar 10–12 weeks old rats with body weights of 185–220 g and male New Zealand rabbits with body weights of 2.0–2.3 kg were purchased from Shanghai SLAC Laboratory Animal Co., Ltd. MT-SYK-03 was administered to the three groups of rats (six rats per group) via oral gavage at 10 mL/kg concentration, and in rabbits 5 mL/kg concentration. Blood samples were kept on ice and centrifuged (2000 g, 4 ℃, 5 min) within 15 min post sampling.

[9] = target: SYK (Homo sapiens, UniProt P43405); test: SYK inhibition luminescent assay; assay type: biochemical; parameters: 6xHis; made in house; host or cells: Sf9
Protocol: Luminescent assay was performed at A. N. Bakh Institute of Biochemistry (Moscow, Russia). Recombinant 6xHis-SYK kinase (expressed in Sf9 cells) was obtained as described previously. […] After incubation (20 min) Kinase-Glo reagent (Promega) was added. The luminescence was detected using the Fusion Universal Microplate Analyzer (PerkinElmer USA).

[10] = MT-SYK-03 0.12 μM, individual wells
[11] = MT-SYK-03 0.37 μM, individual wells
[12] = MT-SYK-03 3.3 μM, individual wells
[13] = MT-SYK-03 10 μM, individual wells
[14] = 500 nM, relative to DMSO, read-out: Residual enzymatic activity
[15] = 10-dose mode, threefold serial dilution from 10 μM
[16] = male, New Zealand, rabbit, plasma

T2 sequence (P06239 whole entry): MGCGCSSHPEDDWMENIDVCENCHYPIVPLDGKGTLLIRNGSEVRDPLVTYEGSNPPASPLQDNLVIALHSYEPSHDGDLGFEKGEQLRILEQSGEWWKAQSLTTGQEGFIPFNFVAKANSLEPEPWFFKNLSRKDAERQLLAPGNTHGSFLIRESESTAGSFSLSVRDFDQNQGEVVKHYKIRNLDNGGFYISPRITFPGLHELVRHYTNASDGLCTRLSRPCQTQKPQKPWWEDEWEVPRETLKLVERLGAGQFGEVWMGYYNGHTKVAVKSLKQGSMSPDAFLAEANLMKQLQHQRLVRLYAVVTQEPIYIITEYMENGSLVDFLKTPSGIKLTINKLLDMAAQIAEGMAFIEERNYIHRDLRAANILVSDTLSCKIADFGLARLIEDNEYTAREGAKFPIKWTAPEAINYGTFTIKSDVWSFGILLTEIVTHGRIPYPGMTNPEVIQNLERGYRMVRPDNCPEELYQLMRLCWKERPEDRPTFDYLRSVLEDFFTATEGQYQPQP
T6 sequence (P07949 29-1114): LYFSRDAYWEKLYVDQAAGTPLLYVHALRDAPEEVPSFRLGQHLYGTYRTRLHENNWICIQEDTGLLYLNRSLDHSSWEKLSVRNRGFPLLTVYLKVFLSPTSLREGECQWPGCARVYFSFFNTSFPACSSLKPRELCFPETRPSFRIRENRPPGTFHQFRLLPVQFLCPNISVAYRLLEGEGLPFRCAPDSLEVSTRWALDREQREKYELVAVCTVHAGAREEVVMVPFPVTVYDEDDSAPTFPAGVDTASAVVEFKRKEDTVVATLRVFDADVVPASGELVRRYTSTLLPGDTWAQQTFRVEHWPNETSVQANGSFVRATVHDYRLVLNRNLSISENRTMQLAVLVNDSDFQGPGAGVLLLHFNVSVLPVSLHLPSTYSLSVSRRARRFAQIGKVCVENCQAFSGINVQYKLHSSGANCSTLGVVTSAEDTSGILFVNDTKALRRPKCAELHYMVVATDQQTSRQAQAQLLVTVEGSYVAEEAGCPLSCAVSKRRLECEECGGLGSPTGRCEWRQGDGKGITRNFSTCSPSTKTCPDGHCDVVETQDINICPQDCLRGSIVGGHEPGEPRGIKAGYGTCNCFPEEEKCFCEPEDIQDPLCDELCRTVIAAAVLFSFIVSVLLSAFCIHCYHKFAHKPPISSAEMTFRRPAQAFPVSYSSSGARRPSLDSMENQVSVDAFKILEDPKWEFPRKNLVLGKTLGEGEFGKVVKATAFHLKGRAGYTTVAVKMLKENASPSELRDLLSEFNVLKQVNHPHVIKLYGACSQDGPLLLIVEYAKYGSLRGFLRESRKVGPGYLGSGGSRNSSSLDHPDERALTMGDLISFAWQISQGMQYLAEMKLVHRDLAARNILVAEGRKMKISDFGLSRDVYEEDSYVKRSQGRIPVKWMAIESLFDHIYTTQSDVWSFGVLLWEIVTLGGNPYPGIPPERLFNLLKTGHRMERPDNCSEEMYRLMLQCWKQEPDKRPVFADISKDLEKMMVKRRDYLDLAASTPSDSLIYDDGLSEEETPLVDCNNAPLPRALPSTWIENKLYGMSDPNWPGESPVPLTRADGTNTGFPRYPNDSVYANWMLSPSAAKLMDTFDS
T4 sequence (Q7KZI7 whole entry): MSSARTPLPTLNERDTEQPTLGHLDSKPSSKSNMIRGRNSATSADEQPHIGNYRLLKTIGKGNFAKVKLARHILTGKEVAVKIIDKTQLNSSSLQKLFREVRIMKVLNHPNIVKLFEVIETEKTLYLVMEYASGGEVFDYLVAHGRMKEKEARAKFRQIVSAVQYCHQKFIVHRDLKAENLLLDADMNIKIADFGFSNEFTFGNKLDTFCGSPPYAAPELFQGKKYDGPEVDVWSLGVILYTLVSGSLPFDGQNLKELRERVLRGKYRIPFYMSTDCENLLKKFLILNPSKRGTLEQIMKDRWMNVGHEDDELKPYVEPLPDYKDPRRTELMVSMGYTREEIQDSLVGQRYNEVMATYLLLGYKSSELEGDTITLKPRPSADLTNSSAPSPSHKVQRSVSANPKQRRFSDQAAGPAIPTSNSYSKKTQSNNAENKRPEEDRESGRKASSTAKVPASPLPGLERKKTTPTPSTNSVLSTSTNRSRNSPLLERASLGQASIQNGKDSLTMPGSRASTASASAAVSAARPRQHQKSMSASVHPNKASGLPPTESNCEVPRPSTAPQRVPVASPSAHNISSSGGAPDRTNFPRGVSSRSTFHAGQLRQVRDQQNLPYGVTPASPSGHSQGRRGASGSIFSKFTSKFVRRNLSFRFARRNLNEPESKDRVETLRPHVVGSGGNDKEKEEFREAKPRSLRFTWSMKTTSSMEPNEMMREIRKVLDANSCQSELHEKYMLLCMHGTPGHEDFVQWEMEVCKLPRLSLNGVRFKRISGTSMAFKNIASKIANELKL
T5 sequence (Q13153 whole entry): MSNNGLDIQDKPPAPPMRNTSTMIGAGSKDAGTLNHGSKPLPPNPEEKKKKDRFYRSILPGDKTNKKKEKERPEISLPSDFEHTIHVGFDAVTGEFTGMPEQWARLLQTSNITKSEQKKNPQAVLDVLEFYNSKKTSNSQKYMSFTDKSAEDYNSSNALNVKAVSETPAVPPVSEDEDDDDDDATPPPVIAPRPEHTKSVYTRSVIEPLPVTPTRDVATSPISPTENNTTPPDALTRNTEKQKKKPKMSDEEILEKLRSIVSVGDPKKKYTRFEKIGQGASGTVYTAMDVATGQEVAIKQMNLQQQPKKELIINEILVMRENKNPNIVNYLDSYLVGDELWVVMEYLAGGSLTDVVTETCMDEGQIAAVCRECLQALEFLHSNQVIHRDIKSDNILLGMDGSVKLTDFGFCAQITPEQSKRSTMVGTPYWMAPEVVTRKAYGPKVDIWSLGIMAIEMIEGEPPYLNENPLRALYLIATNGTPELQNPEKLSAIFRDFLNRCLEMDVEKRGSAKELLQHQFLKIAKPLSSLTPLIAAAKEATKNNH
T3 sequence (Q9P0L2 whole entry): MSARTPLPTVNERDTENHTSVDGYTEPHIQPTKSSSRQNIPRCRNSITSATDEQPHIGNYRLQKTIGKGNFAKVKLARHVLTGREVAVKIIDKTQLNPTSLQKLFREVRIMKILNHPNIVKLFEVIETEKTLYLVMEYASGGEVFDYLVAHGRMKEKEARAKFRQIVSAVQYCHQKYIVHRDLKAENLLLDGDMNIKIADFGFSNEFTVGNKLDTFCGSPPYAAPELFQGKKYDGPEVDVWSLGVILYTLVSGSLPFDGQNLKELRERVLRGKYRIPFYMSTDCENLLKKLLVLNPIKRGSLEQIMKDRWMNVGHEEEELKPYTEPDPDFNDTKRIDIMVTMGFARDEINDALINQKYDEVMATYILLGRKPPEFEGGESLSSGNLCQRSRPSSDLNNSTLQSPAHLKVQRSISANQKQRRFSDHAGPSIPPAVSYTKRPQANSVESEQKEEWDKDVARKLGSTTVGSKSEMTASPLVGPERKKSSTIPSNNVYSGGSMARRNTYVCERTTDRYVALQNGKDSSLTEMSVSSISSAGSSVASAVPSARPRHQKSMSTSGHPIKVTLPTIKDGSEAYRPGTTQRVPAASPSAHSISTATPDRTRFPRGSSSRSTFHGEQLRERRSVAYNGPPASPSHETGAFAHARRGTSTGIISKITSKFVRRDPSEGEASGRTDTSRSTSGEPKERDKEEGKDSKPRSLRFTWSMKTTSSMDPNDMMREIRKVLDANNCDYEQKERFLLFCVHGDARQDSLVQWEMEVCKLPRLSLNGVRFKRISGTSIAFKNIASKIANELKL
T1 sequence (P45984 whole entry): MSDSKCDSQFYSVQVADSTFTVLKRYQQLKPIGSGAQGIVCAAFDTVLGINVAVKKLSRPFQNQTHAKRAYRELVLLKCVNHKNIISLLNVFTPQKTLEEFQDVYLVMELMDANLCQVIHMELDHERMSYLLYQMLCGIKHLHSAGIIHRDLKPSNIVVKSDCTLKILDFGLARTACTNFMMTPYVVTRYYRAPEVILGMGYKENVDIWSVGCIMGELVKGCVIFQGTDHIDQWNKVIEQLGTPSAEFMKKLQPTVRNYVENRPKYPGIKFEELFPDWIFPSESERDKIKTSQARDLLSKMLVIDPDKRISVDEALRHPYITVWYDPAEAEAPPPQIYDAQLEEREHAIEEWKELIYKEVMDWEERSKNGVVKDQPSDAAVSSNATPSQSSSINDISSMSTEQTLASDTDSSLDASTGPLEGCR

COc1cc(Nc2ncnc(Nc3cc4c(cn3)NC(=O)C(C)(C)O4)n2)cc(OC)c1OC [MT-SYK-03]
Relative resorbed surface ([1]; 10 μM, 48 h, versus vehicle control): more than threefold | Ratio resorption/Nb OC ([1]; MT-SYK-03 0.12 μM, Average): 0.079 | Resorption, % resorption ([1]; MT-SYK-03 0.12 μM, Average): 31.78% | TRAP, Number of osteoclasts (Nb OC) ([1]; MT-SYK-03 0.12 μM, Average): 405 | Ratio % ([1]; MT-SYK-03 0.12 μM, Average): 1.001 | Ratio resorption/Nb OC [1, 10]: 0.088 and 0.075 and 0.085 and 0.067 | Resorption, % resorption [1, 10]: 34.41% and 30.62% and 34.06% and 28.02% | TRAP, Number of osteoclasts (Nb OC) [1, 10]: 389 and 408 and 402 and 419 | Ratio resorption/Nb OC ([1]; MT-SYK-03 0.37 μM, Average): 0.062 | Resorption, % resorption ([1]; MT-SYK-03 0.37 μM, Average): 26.43% | TRAP, Number of osteoclasts (Nb OC) ([1]; MT-SYK-03 0.37 μM, Average): 422 | Ratio % ([1]; MT-SYK-03 0.37 μM, Average): 0.789 | Ratio resorption/Nb OC [1, 11]: 0.084 and 0.065 and 0.069 and 0.031 | Resorption, % resorption [1, 11]: 33.11% and 27.51% and 32.94% and 12.15% | TRAP, Number of osteoclasts (Nb OC) [1, 11]: 394 and 426 and 478 and 391 | Ratio resorption/Nb OC ([1]; MT-SYK-03 3.3 μM, Average): 0.015 | Resorption, % resorption ([1]; MT-SYK-03 3.3 μM, Average): 2.81% | TRAP, Number of osteoclasts (Nb OC) ([1]; MT-SYK-03 3.3 μM, Average): 196 | Ratio % ([1]; MT-SYK-03 3.3 μM, Average): 0.197 | Ratio resorption/Nb OC [1, 12]: 0.014 and 0.025 and 0.011 and 0.012 | Resorption, % resorption [1, 12]: 2.31% and 3.40% and 2.62% and 2.91% | TRAP, Number of osteoclasts (Nb OC) [1, 12]: 165 and 136 and 247 and 235 | Ratio resorption/Nb OC ([1]; MT-SYK-03 10 μM, Average): 0.004 | Resorption, % resorption ([1]; MT-SYK-03 10 μM, Average): 1.53% | TRAP, Number of osteoclasts (Nb OC) ([1]; MT-SYK-03 10 μM, Average): 8 | Ratio % ([1]; MT-SYK-03 10 μM, Average): 0.044 | Ratio resorption/Nb OC [1, 13]: 0.016 and 0.024 and 0.023 and 0.028 | Resorption, % resorption [1, 13]: 5.87% and 9.73% and 8.76% and 11.00% and 8.84% | TRAP, Number of osteoclasts (Nb OC) [1, 13]: 371 and 402 and 388 and 390 | remaining activity at 0.5 µM [2]: 92.6% | remaining activity at 0.5 µM [3, 14]: 12% | IC50 [3, 15]: 20 nM and 20.1 nM | remaining activity at 0.5 µM [4]: 95.7% | remaining activity at 0.5 µM [5]: 97.9% | remaining activity at 0.5 µM [6]: 100% | remaining activity at 0.5 µM [7, 14]: 23% | IC50 [7, 15]: 13.5 nM | AUC(0-inf) [8, 16]: 121 µg·h/mL | Cmax [8, 16]: 8570 ng/mL and 14.1 µM | Tmax [8, 16]: 6 ± 2.19 h | k el [8, 16]: 2.67e-05 s⁻¹ | AUC ([8]; male, New Zealand, rabbit, plasma, read-out: AUC48): 119 µg·h/mL | MRT24 [8]: 9.2 ± 0.66 h | τ1/2 [8]: 7.41 ± 1.32 h | IC50 ([9]; read-out: IC50, luminescent assay): 23 nM | IC50 ([9]; span of luminescent and radiometric assays, read-out: IC50 (SYK), as given in Figure 1c): 14 nM and 23 to 40 nM
